Source: patent US10144727B2, “Deoxynojirimycin derivatives and methods of their using” (priority 2013, dated 2018)
Entries after “also recorded” stand apart in the source; their conditions may differ.

How the values were obtained:
[1] = system: influenza A/Texas/36/91 (H1N1); test: Efficacy of UV-12 and UV-28 against lethal INFV A/Texas/36/91 (H1N1) challenge in mice; format: in vivo, BALB/c mice; conditions: for % Survival / Mean Survival: ~1LD90 intranasal; for Health score recovery of infected mice: 100 mg/kg TID; for Weight recovery of infected mice: treated infected mice
Method: Study Summary: This study tested the ability of iminosugars UV-12 and UV-28 to protect mice from lethal influenza infection (˜1LD90 of influenza A/Texas/36/91 (H1N1) administered intranasally). Compounds were delivered 30-60 minutes prior to viral challenge via the oral (IG) route at 100 or 40 mg/kg and continued three times daily for 10 days. The mice used were ˜20 gram, 6-8 week old female BALB/c mice in groups of 10 for efficacy (a summary of the study groups is shown in Table 1). Temperature and weights were taken daily. Endpoint was day 14 post infection, death, or euthanasia. Animals displaying severe illness as determined by >30% weight loss, extreme lethargy, or paralysis were euthanized.
This study tested the ability of UV-12 and UV-28 to protect mice from lethal influenza infection. The mice used were 6-8 week old female BALB/c mice in groups of 10 (see Table 5 below). Mice were treated with 100 or 40 mg/kg three times daily (TID) via IG route starting approximately 30-60 minutes prior to challenge. Mice were challenged with ˜1 LD90 of influenza A/Texas/36/91 (H1N1) administered intranasally (IN). Endpoint was day 14 post infection, death, or euthanasia. Animals displaying severe illness as determined by >30% weight loss, extreme lethargy, or paralysis were euthanized. Temperature and weights were taken daily.
3. The groups of mice challenged with INFV were infected via intranasal (IN) inoculation with ˜1×LD90 in 100 μL of a 1:500 dilution of INFV in PBS under light anesthesia (Isoflurane).
1. Mice were treated with 100 or 40 mg/kg of test article given by the IG route in 100 μL of water (see Table 5 for dosing regimens) three times daily for 10 days.
(§1) 1. Mice were observed through 13 days post infection (14 days total, 0-13 days post infection).
(§2) 2. Mice were weighed daily on an Ohause scale and the weights were recorded.
3. All animals had chips implanted at least 3 days prior to virus challenge that monitored the body temperature. The temperatures were recorded daily.
4. Survival and health of each mouse was evaluated once time a day using a scoring system of 1-7.
FIG. 1 is a plot presenting survival data of infected mice grouped by treatment. The survival data plotted in FIG. 1 were analyzed using the Mantel-Cox (Log rank) test in GraphPad Prism.

[2] = system: influenza A/Texas/36/91 (H1N1); test: Efficacy of selected iminosugars in mice; Influenza A/Texas/36/91 (H1N1) challenge; format: in vivo, BALB/c mice; conditions: for Survival versus untreated/vehicle control group / MTD / Survival rate: 100 mg/kg oral TID for 10 days; for MTD / Survival rate: infected ~1 LD90
Method: (§3) Study Summary: This study analyzed the toxicity and efficacy of UV-8, UV-9, UV-10, UV-11, and UV-12 in mice during an H1N1 influenza infection. […] In the current study, we examined delivery doses of UV-4B. UV-8, UV-9, UV-10. UV-11 and UV-12 at 100 mg/kg, delivered ter in die by the oral route (intragastric via oral gavage or IG. Small groups (n=3) that were included to examine gross toxicity received 100 mg/kg of the iminosugars but without a viral challenge. UV-4B, UV-8. UV-9, UV-10. UV-11 or UV-12 was delivered to the animals starting at 1 hour before intranasal infection (IN) with ˜1 LD90 of influenza A/Texas/36/91 (H1N1). Animals were then treated TID for 10 days total (days 0-9 post infection). Efficacy was evaluated by comparing survival, temperature changes, and weight gain/loss to an infected untreated control group.
This study aimed to determine the efficacy of UV-8. UV-9, UV-10, UV-11, and UV-12 when administered orally at 100 mg/kg TID against a lethal intranasal infection with influenza virus A/Texas/36/91 (H1N1) in the BALB/c mouse model. In addition to the efficacy arm, each of the iminosugars was tested in a small group of animals with the same treatment regimen (100 mg/kg, oral gavage, TID) in the absence of a viral infection to examine gross toxicity of each analog (general health, weight, temperature, and mortality evaluations).
UV-8, -9, -10, -11, -12, and UV-4B were prepared in H2O at 20 mg/ml for a delivery dose of 100 mg/kg, assuming ˜20 g mice given 0.1 mL of compound. Groups of BALB/c mice were treated at one hour before (−1 h) intranasal infection with ˜1 LD90 of INFV A/Texas/36/91 (H1N1) and then compounds were administered three times daily for a total of 10 days (see Table 12 for study design summary). Weights, temperature, and survival were monitored and used for evaluation of protective efficacy and toxicity of each analog.
3. The groups of mice challenged with influenza were anesthetized with 5% Isofluorene and maintained at 2.5% prior to intranasal inoculation with ˜1 LD90 of INFV in 100 μL PBS.
1. Mice were treated starting at 1 hour before infection with 100 μL of compound in H2O (see Table 12 for dosing regimens) three times a day for 10 days total with 100 mg/kg of UV-4B, UV-8, UV-9, UV-10, UV-11, or UV-12 compound given by the oral route (intragastric via oral gavage). 2. After dosing, mice were returned to their cages and monitored for any distress related to dosing.
as §1, §2
3. All animals had chips implanted that monitored the body temperature. The temperatures were recorded daily.
4. Survival and health of each mouse was evaluated three times a day using a scoring system of 1-7.
5. Mice were euthanized when scored at 5 or above (Very Sick; Very Rufftled Coat; Closed, inset eyes; Slow to no movement; Will return to upright position if put on its side; extremely lethargic).

[3] = 100 mg/kg oral TID; for Survival without a viral challenge: uninfected, n=3
H1N1 = test: Previous studies: oral UV-4B TID at 100 mg/kg against H1N1; format: in vivo; conditions: oral TID at 100 mg/kg
Method: as §3

DENV2 Strain S221 = test: Survival analysis of UV-12 in A129 ADE model of dengue infection; format: in vivo, A129 mice; conditions: 100 mg/kg/dose orally 3x per day for 7 days, first dose 1 hr before IV challenge
Source text: Purpose: This study determined the efficacy of UV-12 in promoting survival of mice challenged with dengue virus. Compound were given by the oral route (3× per day intragastric via oral gavage—IG) for a total number of 7 days after the start of dosing. The experiment used the A129 ADE model of infection. (Prestwood T R, Morar M M, Zellweger R M, Miller R, May M M, Yauch L E, Lada S M. Shresta S. Gamma interferon (IFN-γ) receptor restricts systemic dengue virus replication and prevents paralysis in IFN-α/β receptor-deficient mice. J Virol. 2012 December; 86(23):12561-70.) Animals received the virus challenge dose ˜1 LD90 on day 0. The first dose was given 0.5-1 hr pre-virus challenge. Survival was measured until 30 days after infection.
Mice: Sex matched 5-6 weeks old A129 (129/SV IFN-α, -β receptor^−/−)
Iminosugar: Orally 3× day, (gavage (IG)) every 8 hours
Antibody and Iminosugar Compound were given simultaneously, then virus within 30 minutes
Antibody: 100 μg 2H2 (IgG2a anti-DENV1-4 prM) from ATCC, day 0 and day 1 in 40 ul
Virus: DENV2 Strain S221 (v512) (Zellweger R M, Prestwood T R, Shresta S.
Dose: 1E11 GE (genomic equivalents) per animal
Animal survival. Animals displaying severe illness (as determined by 20% weight loss, extreme lethargy, ruffled coat, or paralysis) are euthanized.
FIG. 5 presents results of this study. […]

## COC(C)(C)CCCCCCCCN1C[C@H](O)[C@@H](O)[C@H](O)[C@H]1CO [UV-28]
[1]; 40 mg/kg TID IG for 10 days
  % Survival: 60%
  Mean Survival: >13 days
[1]; 100 mg/kg TID IG for 10 days
  % Survival: 100%
  Mean Survival: >13 days
[1]; FIG. 4
  Health score recovery of infected mice: never recovered their health score
  Toxicity compared (health scores): more toxic than UV-12
[1]
  Weight recovery of infected mice: did not recover their weight as well

## OCCCCCCCCCN1C[C@H](O)[C@@H](O)[C@H](O)[C@H]1CO [UV-11]
[2]
  Survival versus untreated/vehicle control group: did not show any improvement in survival
  MTD: 8 days
  Survival rate: 0%
[3]
  Survival without a viral challenge: 100%

## COCCCCCCCCCN1C[C@H](O)[C@@H](O)[C@H](O)[C@H]1CO [UV-4B, N-9-methoxynonyl-deoxynojirimycin, reference compound]
[2]
  Survival versus untreated/vehicle control group: significant increase in survival
  Survival rate: 100%
H1N1
  Efficacy against H1N1: resulted in efficacy
  Signs of toxicity: did not show any discernible signs of toxicity

## OCC1C(O)C(O)C(O)CN1CCCCCCCCC1CCCO1 (mixture of isomers) [UV-12]
[1]; 40 mg/kg TID IG for 10 days
  % Survival: 20%
  Mean Survival: 9 days
[1]; 100 mg/kg TID IG for 10 days
  % Survival: 100%
  Mean Survival: >13 days
[1]; FIG. 4
  Health score recovery of infected mice: fully recovered from the infection and returned to normal
[1]
  Weight recovery of infected mice: almost completely recovered
DENV2 Strain S221
  Survival compared to control animals: increased survival
[2]
  Survival versus untreated/vehicle control group: significant increase in survival
  Survival rate: 90%
[2]; 100 mg/kg oral TID, infected mice
  Overall temperature and weight versus vehicle control: significant increases in overall temperature and weight
[3]
  Recovery after dosing regimen completed, uninfected mice: able to fully recover
  Toxicity in the uninfected group: mild toxicity with steady weight loss
  Weight loss overall in uninfected mice: ≤ 10%
  Survival without a viral challenge: 100%

## COCCCCCCCOC(=O)N1C[C@H](O)[C@@H](O)[C@H](O)[C@H]1CO [UV-9]
[2]
  Survival versus untreated/vehicle control group: did not show any improvement in survival
  MTD: 7 days
  Survival rate: 0%
[3]
  Survival without a viral challenge: 100%

## COCCCCCCCCC(=O)N1C[C@H](O)[C@@H](O)[C@H](O)[C@H]1CO [UV-8]
[2]
  Survival versus untreated/vehicle control group: did not show any improvement in survival; also recorded: no significant difference from the vehicle control group
  MTD: 10.5 days
  Survival rate: 30%
[3]
  Survival without a viral challenge: 100%

## COC(=O)CCCCCCCCN1C[C@H](O)[C@@H](O)[C@H](O)[C@H]1CO [UV-10]
[2]
  Survival versus untreated/vehicle control group: did not show any improvement in survival
  MTD: 7.5 days
  Survival rate: 0%
[3]
  Survival without a viral challenge: 100%
